# Experiments:
# blood monocytes = test: in vitro; conditions: 48 h
# Experimental: Purified populations of human blood monocytes were prepared as previously described by differential density centrifugation on Ficoll and Percoll gradients (see Allavena, P., Piemonti, L., Longoni, D., Bernasconi, S., Stoppacciaro, A., Ruco, L., and Mantovani, A. IL-10 prevents the differentiation of monocytes to dendritic cells but promotes their maturation to macrophages. Eur J Immunol, 28: 359-369, 1998). […] Human thymocytes were isolated from resected thymus from pediatric patients undergoing surgery. Thymocytes were obtained by teasing and isolated on Percoll gradient.
# Cells were cultured at 10^6 cells/ml in complete medium RPMI (Biochrom, Berlin, FRG)+10% FCS (Hyclone, Logan, Utah). In vitro differentiated macrophages were obtained by culture of monocytes Monocyte-Colony Stimulating Factor (M-CSF) Peprotech (20 ng/ml), for 5 days. In some experiments, macrophages were treated with LPS (100 ng/ml) Sigma Aldrich, IFN gamma (500 IU/ml) or IL-4 (20 ng/ml) (Schering Plough) for 24 h.
# Cell viability was analyzed by DNA content in Flow Cytometry
# Cells exposed to treatments were fixed with ethanol 70%, washed in PBS and stained with propidium iodide (PI) solution containing 10 ug/ml PI in PBS and 25 μl RNAse 10,000 units, overnight in the dark. PI incorporation was evaluated on at least 20,000 cells/sample using a FACS Calibur instrument (Becton Dickinson, Sunnyvale, Calif., USA), with a bandpass filter at 620 nm. Apoptosis was detected by staining with AnnexinV and PI. FACS analysis was performed using a bandpass filter 530 and 620 nm for green (AnnexinV) and red (PI) fluorescence respectively, in combination with a […] dichroic mirror.
# Purified preparations of blood monocytes, lymphocytes and thymocytes were cultured with different concentrations of ecteinascidin 743 for 48 h. Cell viability was assessed by DNA analysis and propidium iodide (PI) staining in Flow cytometry.
# A kinetics analysis of the cytotoxic effect of ecteinascidin 743 was performed in the presence of M-CSF. Cells were treated with M-CSF (20 ng/ml) and different concentrations of ecteinascidin 743. Samples were collected at the indicated times and tested for DNA analysis.
# Viability was assessed by PI staining and analyzed by Flow Cytometry.
# CCL2 [1] = test: CCL2 production by LPS-stimulated monocytes (ELISA); format: cell-based, human; conditions: 24 h-incubation
# Experimental: Supernatants of untreated cells or cells treated with ecteinascidin 743 or other anti-neoplastic agents were collected after 24 h culture and frozen. Monocytes, macrophages and TAM were stimulated with 100 ng/ml LPS to induce maximal cytokine production. Determination of cytokines CCL2, TNF and IL-6 was measured by specific ELISA following the manufacturer's instructions.
# Monocytes and in vitro differentiated macrophages were stimulated with LPS (100 ng/ml). After 1 h LPS stimulation they were treated with ecteinascidin 743. After 16 h incubation, cell supernatants were harvested and tested in ELISA. Under these treatment conditions cell viability was usually >85% for concentrations up to 5 nM. […] Mean inhibition at 5 nM, for monocytes, was 65% (range 50-80%, n=5) and was 50% (range 25-75%, n=5) for in vitro differentiated macrophages. Results are mean+/−SE of 3-5 experiments
# Similar results were obtained when monocytes were stimulated with LPS (100 ng/ ml) and treated with ET743 and the other ecteinascidin compounds, although the overall inhibition was less marked compared with the previous experiment where the tumor supernantant was used as CCL2-inducing stimulus.
# CCL2 and TNF production by LPS-stimulated monocytes treated with the indicated doses of the anti-tumor agents was also tested. Cell supernatants were harvested after 24 h-incubation and tested in ELISA. […] None of these compounds interfered with the production of TNF.
# A major finding of our work is the inhibitory activity of ecteinascidin 743 on the production of inflammatory cytokines. Among various inflammatory cytokines produced by monocyte/macrophages we have tested IL-6, TNF and the chemokine CCL2. CCL2 is a chemokine attracting monocytes and other leukocyte subsets, and is produced both by monocyte/macrophages and several tumour cells. It has been described that ovarian adenocarcinoma cells produce huge amounts of CCL2 and that their levels correlate with the macrophage content of tumours. CCL2 is therefore one of the most important factors regulating monocyte/macrophages recruitment at the tumour site. […] Thus, lower levels of CCL2 by TAM and tumour cells are likely to reduce the number of macrophages recruited at the tumour site. In the above described in vitro experiments ecteinascidin 743 was present throughout the 16-h culture period. We also checked whether a shorter in vitro exposure to ecteinascidin 743 was sufficient to affect cytokine production. Monocytes exposed to ecteinascidin 743 were washed after 1 hour culture and replaced in fresh medium.
# CCL2 [2] = test: CCL2 production induced by exposure of monocytes to tumor cell supernatants; format: cell-based, human
# Experimental: We also tested five other ecteinascidin compounds (Table 2) for their capacity to inhibit the production of CCL2 by human monocytes in vitro. […] The extent of inhibition of ET637 Derivative A was even more pronouced compared to ET743. In Table 2 is shown that the production of CCL2, induced by exposure of monocytes to tumor cell supernatants, is inhibited up to 80% and 97% at 2.5 and 5 nM, respectively, in two different donors. In the same experiment ET743 inhibited between 30% and 70%.
smiles,measurement,setting,value
"N.N.[Cl][Pt][Cl] [Cisplatin, reference compound]",toxicity on monocytes,blood monocytes; very high concentrations (40 μM),Significant toxicity
same,effect on CCL2 production by LPS-stimulated monocytes,CCL2 [1]; 10 μM,reduced CCL2 production
COc1cc2c(cc1O)CCN[C@]21CS[C@@H]2c3c(OC(C)=O)c(C)c4c(c3[C@H](COC1=O)N1C[C@@H]3Cc5cc(C)c(OC)c(O)c5[C@H]([C@H]21)N3C)OCO4 [ET745],inhibition at 0.005 µM,"CCL2 [2]; Homo sapiens, Monocyte, read-out: % inhibition of CCL2 production, Donor A",23%
"CC(=O)O[C@H]1C(=O)[C@@]2(C)[C@H]([C@H](OC(=O)c3ccccc3)[C@]3(O)C[C@H](OC(=O)[C@H](O)[C@@H](NC(=O)c4ccccc4)c4ccccc4)C(C)=C1C3(C)C)[C@]1(OC(C)=O)CO[C@@H]1C[C@@H]2O [Taxol, reference compound]",toxicity on monocytes,blood monocytes; 300 nM,ineffective
same,effect on CCL2 production by LPS-stimulated monocytes,CCL2 [1]; indicated doses (FIG. 9B),ineffective
COc1c(C)cc2c(c1O)C1C3[C@@H]4SCC(=O)C(=O)OC[C@@H](c5c6c(c(C)c(OC(C)=O)c54)OCO6)N3[C@@H](O)[C@H](C2)N1C (some centres unmarked) [ET594],"% inhibition of CCL2 production, Donor A",CCL2 [2]; 5 nM,25%
same,"% inhibition of CCL2 production, Donor A",CCL2 [2]; 10 nM,25%
"COc1cccc2c1C(=O)c1c(O)c3c(c(O)c1C2=O)C[C@@](O)(C(=O)CO)C[C@@H]3O[C@H]1C[C@H](N)[C@H](O)[C@H](C)O1 [Doxorubicin, reference compound]",effect on CCL2 production by LPS-stimulated monocytes,CCL2 [1]; indicated doses (FIG. 9B),ineffective
